Experimental data reported in PubChem BioAssay AID256 (DTP/NCI, 2004).
Values joined by “and” are separate entries in the source; they are usually repeats but may differ in a detail not shown here. Equal values may be shown once. Toxic doses and inconclusive results are not listed. Rule for the calls: active = survival T/C of 150% or more; inactive = T/C below 125% in these data.

Tested on: CD2F1 mice, L1210 leukemia ip, survival T/C
Experiment: NCI In Vivo Anticancer Drug Screen. Data for tumor model L1210 Leukemia (intraperitoneal) in CD2F1 (CDF1) mice
Conditions: higher = longer survival
How it was run: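 Each value reflects a quotient of treated over vehicle control outcomes in mice with a transplanted tumor.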

[1] = endpoint: mean survival time, dose: 100.0 mg/kg/injection, schedule: Q01DX009 (ip), vehicle: saline with Tween-80
[2] = endpoint: mean survival time, dose: 200.0 mg/kg/injection, schedule: Q01DX009 (ip), vehicle: saline with Tween-80
[3] = endpoint: mean survival time, dose: 12.5 mg/kg/injection, schedule: Q01DX009 (ip), vehicle: saline with Tween-80
[4] = endpoint: mean survival time, dose: 25.0 mg/kg/injection, schedule: Q01DX009 (ip), vehicle: saline with Tween-80
[5] = endpoint: mean survival time, dose: 50.0 mg/kg/injection, schedule: Q01DX009 (ip), vehicle: saline with Tween-80
[6] = endpoint: mean survival time, dose: 100.0 mg/kg/injection, schedule: Q01DX001 (ip), vehicle: saline with Tween-80
[7] = endpoint: mean survival time, dose: 100.0 mg/kg/injection, schedule: Q04DX003 (ip), vehicle: saline with Tween-80

Measured: T/C

COC(=O)c1c(CC#N)ncn1C1OC(COC(C)=O)C(OC(C)=O)C1OC(C)=O (stereo unspecified)
inactive: endpoint: median survival time, dose: 8.25 mg/kg/injection, schedule: Q01DX005 (ip), vehicle: water 104 % of control | endpoint: median survival time, dose: 11.25 mg/kg/injection, schedule: Q01DX005 (ip), vehicle: water 100 % of control | endpoint: median survival time, dose: 16.5 mg/kg/injection, schedule: Q01DX005 (ip), vehicle: water 101 % of control | endpoint: median survival time, dose: 22.5 mg/kg/injection, schedule: Q01DX005 (ip), vehicle: water 98 % of control | endpoint: median survival time, dose: 33.0 mg/kg/injection, schedule: Q01DX005 (ip), vehicle: water 101 % of control | endpoint: median survival time, dose: 45.0 mg/kg/injection, schedule: Q01DX005 (ip), vehicle: water 101 % of control | endpoint: median survival time, dose: 66.0 mg/kg/injection, schedule: Q01DX005 (ip), vehicle: water 100 % of control | endpoint: median survival time, dose: 90.0 mg/kg/injection, schedule: Q01DX005 (ip), vehicle: water 100 % of control | endpoint: median survival time, dose: 132.0 mg/kg/injection, schedule: Q01DX005 (ip), vehicle: water 101 % of control | endpoint: median survival time, dose: 180.0 mg/kg/injection, schedule: Q01DX005 (ip), vehicle: water 100 % of control

CCOC(=O)N1C(=O)c2ccccc2C1=O
inactive: [1] 93 % of control | [2] 93 % of control | endpoint: mean survival time, dose: 400.0 mg/kg/injection, schedule: Q01DX009 (ip), vehicle: saline with Tween-80 100 % of control

COc1cc(OC)c(NC(=O)Nc2ccc(NC(C)=O)cc2)cc1Cl
inactive: [3] 103 % of control | [4] 103 % of control | [5] 103 % of control

O=[N+]([O-])c1ccc(CSc2ncnc3c2ncn3C2OC(CO)C(O)C2O)cc1 (stereo unspecified)
inactive: endpoint: median survival time, dose: 0.1 mg/kg/injection, schedule: Q01DX009 (ip), vehicle: saline 100 % of control | endpoint: median survival time, dose: 1.0 mg/kg/injection, schedule: Q01DX009 (ip), vehicle: saline 105 % of control | endpoint: median survival time, dose: 10.0 mg/kg/injection, schedule: Q01DX009 (ip), vehicle: saline 107 % of control

COc1ccc(Nc2ccc(C(=C3C=CC(=[N+](C)CCC#N)C=C3)c3ccc(N(C)CCC#N)cc3)cc2)cc1
inactive: endpoint: mean survival time, dose: 100.0 mg/kg/injection, schedule: Q04DX002 (ip), vehicle: saline with Tween-80 90 % of control

CC(C)(C)N1CCC1C(O)c1ccccc1 (stereo unspecified)
inactive: endpoint: mean survival time, dose: 25.0 mg/kg/injection, schedule: Q04DX003 (ip), vehicle: saline with Tween-80 100 % of control | endpoint: mean survival time, dose: 50.0 mg/kg/injection, schedule: Q04DX003 (ip), vehicle: saline with Tween-80 102 % of control | [6] 98 % of control | [7] 95 % of control

CCC[CH2][Sn]1([CH2]CCC)[O]C(=O)c2c(Cl)c(Cl)c(Cl)c(Cl)c2C(=O)[O]1
inactive: endpoint: mean survival time, dose: 5.0 mg/kg/injection, schedule: Q01DX001 (ip), vehicle: saline 101 % of control | endpoint: mean survival time, dose: 10.0 mg/kg/injection, schedule: Q01DX001 (ip), vehicle: saline 101 % of control | endpoint: mean survival time, dose: 20.0 mg/kg/injection, schedule: Q01DX001 (ip), vehicle: saline 109 % of control

Nc1cc(=O)c2nnn(C3OC(CO)C(O)C3O)c2[nH]1 (stereo unspecified)
inactive: endpoint: mean survival time, dose: 12.5 mg/kg/injection, schedule: Q01DX005 (ip), vehicle: water 102 % of control | endpoint: mean survival time, dose: 25.0 mg/kg/injection, schedule: Q01DX005 (ip), vehicle: water 98 % of control | endpoint: mean survival time, dose: 50.0 mg/kg/injection, schedule: Q01DX005 (ip), vehicle: water 94 % of control | endpoint: mean survival time, dose: 100.0 mg/kg/injection, schedule: Q01DX005 (ip), vehicle: water 87 % of control | endpoint: mean survival time, dose: 200.0 mg/kg/injection, schedule: Q01DX005 (ip), vehicle: water 105 % of control | endpoint: mean survival time, dose: 400.0 mg/kg/injection, schedule: Q01DX005 (ip), vehicle: water 90 % of control

NC(=O)c1[nH]nc(C2OC(COP(=O)(O)O)C(O)C2O)c1O (stereo unspecified)
inactive: endpoint: median survival time, dose: 6.25 mg/kg/injection, schedule: Q01DX005 (ip), vehicle: saline 122 % of control | endpoint: median survival time, dose: 12.5 mg/kg/injection, schedule: Q01DX005 (ip), vehicle: saline 93 % of control | endpoint: median survival time, dose: 25.0 mg/kg/injection, schedule: Q01DX005 (ip), vehicle: saline 93 % of control

CCCCCCCCCCCCCCCCOc1ccc(S(=O)(=O)NC2CCCCC2)cc1N
inactive: [7] 104 % of control | endpoint: mean survival time, dose: 200.0 mg/kg/injection, schedule: Q04DX003 (ip), vehicle: saline with Tween-80 94 % of control | endpoint: mean survival time, dose: 400.0 mg/kg/injection, schedule: Q04DX003 (ip), vehicle: saline with Tween-80 96 % of control

C[N+]1(CCO)C2CCC1CC(O)C2 (stereo unspecified)
inactive: endpoint: mean survival time, dose: 100.0 mg/kg/injection, schedule: Q04DX002 (ip), vehicle: saline 97 % of control | endpoint: mean survival time, dose: 200.0 mg/kg/injection, schedule: Q04DX002 (ip), vehicle: saline 102 % of control

CN(C)c1nc(N(C)C)nc(N(C)C)n1
inactive: [3] 93 % of control and 103 % of control | endpoint: mean survival time, dose: 20.0 mg/kg/injection, schedule: Q01DX009 (ip), vehicle: Klucel (hydroxypropylcellulose) (HPC) 106 % of control | [4] 97 % of control and 102 % of control | endpoint: mean survival time, dose: 40.0 mg/kg/injection, schedule: Q01DX009 (ip), vehicle: Klucel (hydroxypropylcellulose) (HPC) 102 % of control | endpoint: mean survival time, dose: 50.0 mg/kg/injection, schedule: Q01DX001 (ip), vehicle: saline with Tween-80 96 % of control | [5] 97 % of control and 100 % of control | endpoint: mean survival time, dose: 80.0 mg/kg/injection, schedule: Q01DX009 (ip), vehicle: Klucel (hydroxypropylcellulose) (HPC) 106 % of control | [6] 104 % of control | [1] 96 % of control and 97 % of control | endpoint: mean survival time, dose: 160.0 mg/kg/injection, schedule: Q01DX009 (ip), vehicle: Klucel (hydroxypropylcellulose) (HPC) 100 % of control | endpoint: mean survival time, dose: 200.0 mg/kg/injection, schedule: Q01DX001 (ip), vehicle: saline with Tween-80 97 % of control | [2] 100 % of control and 103 % of control | endpoint: mean survival time, dose: 400.0 mg/kg/injection, schedule: Q01DX001 (ip), vehicle: saline with Tween-80 104 % of control | endpoint: median survival time, dose: 8.0 mg/kg/injection, schedule: Q03HX024 (ip), vehicle: Klucel (hydroxypropylcellulose) (HPC) 97 % of control | endpoint: median survival time, dose: 16.0 mg/kg/injection, schedule: Q03HX008 (ip), vehicle: Klucel (hydroxypropylcellulose) (HPC) 96 % of control | endpoint: median survival time, dose: 16.0 mg/kg/injection, schedule: Q03HX016 (ip), vehicle: Klucel (hydroxypropylcellulose) (HPC) 96 % of control | endpoint: median survival time, dose: 16.0 mg/kg/injection, schedule: Q03HX024 (ip), vehicle: Klucel (hydroxypropylcellulose) (HPC) 104 % of control | endpoint: median survival time, dose: 32.0 mg/kg/injection, schedule: Q01DX009 (ip), vehicle: Klucel (hydroxypropylcellulose) (HPC) 108 % of control | endpoint: median survival time, dose: 32.0 mg/kg/injection, schedule: Q03HX008 (ip), vehicle: Klucel (hydroxypropylcellulose) (HPC) 100 % of control | endpoint: median survival time, dose: 32.0 mg/kg/injection, schedule: Q03HX016 (ip), vehicle: Klucel (hydroxypropylcellulose) (HPC) 100 % of control | endpoint: median survival time, dose: 32.0 mg/kg/injection, schedule: Q03HX024 (ip), vehicle: Klucel (hydroxypropylcellulose) (HPC) 111 % of control | endpoint: median survival time, dose: 64.0 mg/kg/injection, schedule: Q01DX009 (ip), vehicle: Klucel (hydroxypropylcellulose) (HPC) 107 % of control | endpoint: median survival time, dose: 64.0 mg/kg/injection, schedule: Q04DX003 (ip), vehicle: Klucel (hydroxypropylcellulose) (HPC) 98 % of control | endpoint: median survival time, dose: 128.0 mg/kg/injection, schedule: Q01DX001 (ip), vehicle: Klucel (hydroxypropylcellulose) (HPC) 97 % of control | endpoint: median survival time, dose: 128.0 mg/kg/injection, schedule: Q01DX009 (ip), vehicle: Klucel (hydroxypropylcellulose) (HPC) 102 % of control | endpoint: median survival time, dose: 128.0 mg/kg/injection, schedule: Q04DX003 (ip), vehicle: Klucel (hydroxypropylcellulose) (HPC) 109 % of control | endpoint: median survival time, dose: 128.0 mg/kg/injection, schedule: Q08DX002 (ip), vehicle: Klucel (hydroxypropylcellulose) (HPC) 98 % of control | endpoint: median survival time, dose: 256.0 mg/kg/injection, schedule: Q01DX001 (ip), vehicle: Klucel (hydroxypropylcellulose) (HPC) 98 % of control | endpoint: median survival time, dose: 256.0 mg/kg/injection, schedule: Q04DX003 (ip), vehicle: Klucel (hydroxypropylcellulose) (HPC) 114 % of control | endpoint: median survival time, dose: 256.0 mg/kg/injection, schedule: Q08DX002 (ip), vehicle: Klucel (hydroxypropylcellulose) (HPC) 98 % of control
